For test [1], the target named is T1, Follicle-stimulating hormone receptor (Homo sapiens, UniProt P23945).
T1 sequence (P23945 whole entry): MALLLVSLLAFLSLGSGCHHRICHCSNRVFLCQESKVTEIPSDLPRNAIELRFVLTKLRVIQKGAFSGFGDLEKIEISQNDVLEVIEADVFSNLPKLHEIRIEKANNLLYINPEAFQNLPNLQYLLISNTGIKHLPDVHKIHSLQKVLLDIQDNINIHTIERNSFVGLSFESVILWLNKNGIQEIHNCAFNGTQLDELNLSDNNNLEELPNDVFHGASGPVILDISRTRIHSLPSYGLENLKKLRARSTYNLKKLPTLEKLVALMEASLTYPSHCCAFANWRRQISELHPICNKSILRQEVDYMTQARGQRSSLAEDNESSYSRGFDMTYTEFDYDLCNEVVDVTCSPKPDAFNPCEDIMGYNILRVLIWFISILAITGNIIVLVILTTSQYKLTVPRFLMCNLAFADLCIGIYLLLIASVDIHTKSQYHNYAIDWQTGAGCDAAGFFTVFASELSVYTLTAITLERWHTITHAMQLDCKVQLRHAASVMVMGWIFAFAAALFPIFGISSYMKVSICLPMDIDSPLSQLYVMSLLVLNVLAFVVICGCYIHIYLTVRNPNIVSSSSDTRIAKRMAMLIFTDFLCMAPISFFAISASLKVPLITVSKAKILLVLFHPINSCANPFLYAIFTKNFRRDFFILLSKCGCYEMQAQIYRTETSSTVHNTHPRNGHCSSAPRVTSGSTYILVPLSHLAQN
The test can be described thus: Positive allosteric modulation of FSHR (unknown origin) expressed in CHO cells assessed as FSH-induced cAMP accumulation incubated for 1 hr by HTRF assay. It is filed as functional, cell-based.

The target of test [2] is T1, Follicle-stimulating hormone receptor. The test can be described thus: Positive allosteric modulation of human FSHR expressed in rat granulosa cells assessed as FSH-induced estradiol production after 72 hrs by radioimmunossay. The format is cell-based.

Our source for the EC50 values is ChEMBL document CHEMBL3808353, “Targeting the Follicle Stimulating Hormone Receptor (FSHR) To Treat Fertility Disorders” (ACS Med Chem Lett, 2016).

Where only a bound is given, the exact number is not on record here.

As for `Cc1ccccc1N1CCN(c2ccc(C(=O)NCCCN3CCCC3=O)cc2NC(=O)c2coc(C3CC3)n2)CC1`, the EC50 is below 100 nM in test [1] and 100 nM in test [2].
On the same counts, the results for `Cc1ccccc1N1CCN(c2ccc(C(=O)NCCCc3nn[nH]n3)cc2NC(=O)c2coc(C3CC3)n2)CC1` are below 100 nM and 100 nM.
The matching figures for `Cc1ccccc1N1CCN(c2ccc(C(=O)NCCCN3CCCC3=O)cc2NC(=O)c2ccco2)CC1`: below 100 nM and above 1000 nM.
Take `C=CCNC(=O)NCCCNC(=O)c1ccc(N2CCN(c3ccccc3C)CC2)c(NC(=O)c2ccco2)c1`: in test [1], the 50% effective concentration (EC50) was below 100 nM.
Consider `Cc1ccccc1N1CCN(c2ccc(C(=O)NCCCN3CCCC3=O)cc2NC(=O)c2ccc(F)cc2)CC1`, for which the EC50 in test [1] and in test [2] was 100 nM throughout.
For the molecule `Cc1ccccc1N1CCN(c2ccc(C(=O)N[C@H]3CCC[C@H](O)C3)cc2NC(=O)c2coc(C3CC3)n2)CC1`, in test [1], the EC50 was below 100 nM.
